Measurements taken from PMC8389655, “Au2phen and Auoxo6, Two Dinuclear Oxo-Bridged Gold(III) Compounds, Induce Apoptotic Signaling in Human Ovarian A2780 Cancer Cells” (Biomedicines, 2021).

Tests used:
[1] = system: complex I-driven mitochondrial respiration; experiment: Respiratory control ratio, complex I-driven respiration in permeabilized cells; type: cell-based, human; conditions: permeabilized A2780, 24 h treatment; control about 3.1
Protocol: The analysis of the oxygen consumption rate (OCR) was performed using a Clark-type O2 electrode inserted in a thermostated airtight chamber (Oxygraph Plus System, Hansatech Instruments, King’s Lynn, Norfolk, UK). Briefly, control and treated cells (12 and 24 h) were trypsinized, washed with PBS, and suspended in culture medium to measure the steady state OCR for 10 min. The OCR values, expressed as nmol of consumed O2/mL/min, were normalized to the cellular protein content. To evaluate the response of complex I, complex II/III, and ATP-synthase-driven OCRs in the presence or absence of gold-treatment, we used the protocol described by Baracca et al.. Cells were trypsinized, washed, and resuspended in buffer containing sucrose, TRIS-HCl, MgSO4, EDTA, and KH2PO4. Cell suspension was treated with digitonin to allow cell membrane permeabilization. To stimulate complex I, 250 mM glutamate/malate was added, whereas to stimulate complex II, 250 mM succinate was added (state 2 respiration). Then, to induce ATP-synthase-driven mitochondrial respiration, 10 mM ADP was added (state 3 respiration). To estimate the mitochondrial respiratory capacity, defined as the respiratory control ratio (RCR), state 3/state 2 ratios were calculated for control and treated cells.

OXPHOS complex II = experiment: Western blot of OXPHOS complex II content; type: cell-based, human; conditions: A2780, 24 h at 72 h IC50 dose, vs controls
Protocol: (§1) After drug treatments, cells were lysed in RIPA buffer supplemented with a cocktail of protease and phosphatase inhibitors. […] To favor the electrophoretic separation, 25% sample loading buffer (SLB) was added to the cell lysates. Here, 20 µg samples of proteins from controls and treated cells were loaded on 4–20% pre-cast SDS-PAGE gels and blotted onto PVDF membranes. Primary antibodies Bcl-2 (1:1000 dilution,#sc-7382, Santa Cruz, Dallas, Texas USA), Bax (1:1000 dilution, #sc-493, Santa Cruz), OXPHOS cocktail (1:1000 dilution, #ab110413, AbCam, Cambridge, UK), citrate synthase (1:1000 dilution, #sc-515640, Santa Cruz), ASK1 (1:1000 dilution, #sc-390275, Santa Cruz), phospho(Thr838)-ASK1 (1:1000 dilution, #CPA6042, Cohesion Biosciences, London, UK), AKT (1:1000 dilution, #sc-5298, Santa Cruz), and phospho(Ser473)-AKT (1:1000 dilution, #GTX128414, GeneTex, Irvine, CA, USA) were added to 2% non-fat dry milk in PBS-tween solution, while PVDF membranes were incubated overnight at 4 °C. Then, membranes were treated with horseradish peroxidase (HRP)-conjugated secondary antibodies (1:5000 dilution, Santa Cruz) and immunoreactive bands were detected with an ECL kit detection system on an Amersham Imager 600 (GE Healthcare, Chicago, IL, USA). For the quantification, a densitometric analysis of the bands was performed using ImageJ2 software version 2.0.0-rc-64 [23]. The intensities of the immunostained bands were normalized on the Coomassie brilliant blue R-250-stained total protein from the same PVDF membrane.

[2] = system: mitochondrial membrane potential (Δψm) in A2780 cells; experiment: Mitochondrial membrane potential (TMRM, flow cytometry); type: cell-based, human; conditions: A2780, 48 h exposure at 72 h IC50 dose, compared to controls
Protocol: The mitochondrial membrane potential (Δψm) was measured using tetramethylrhodamine methyl ester perchlorate (TMRM), a lipophilic potentiometric fluorescent dye that distributes between the mitochondria and cytosol in proportion to Δψm by virtue of its positive charge. The amount of accumulated dye in the mitochondria, and consequently the signal intensity, is a direct function of mitochondrial potential. […] Cells were then trypsinized, washed with PBS, and incubated with 100 nM TMRM for 20 min in the dark at 37 °C. After labelling, cells were washed again, suspended in PBS, and analyzed using a FACSCantoII flow cytometer (BD Biosciences, New Jersey, USA).

OXPHOS complex I = experiment: Western blot of OXPHOS complex I content; type: cell-based, human; conditions: A2780, 24 h at 72 h IC50 dose, vs controls
Protocol: as §1

AKT = experiment: Western blot of phospho(Ser473)-AKT and total AKT; type: cell-based, human; conditions: A2780, 24 h at 72 h IC50 dose, vs controls
Protocol: as §1

[3] = system: HEK293 (human embryonic kidney) cells; experiment: MTT antiproliferative assay on HEK cells; type: cell-based; conditions: for IC50: 72 h of treatment, MTT assay, mean ± SD of three experiments, read-out: Half-maximal inhibitory concentration (IC50), HEK293; for IC50 for HEK higher than for A2780 (fold): ratio of 72 h IC50 HEK / A2780
Protocol: The inhibition of cell proliferation by Au2phen, Auoxo6, and AuL12 on A2780 cell line was evaluated through MTT (3-(4,5-dimethylthiazol-2-yl)-2,5-diphenyltetrazolium bromide) test. Viable cells can convert MTT into formazan, which is coloured and detectable at 595 nm. Exponentially growing cells were seeded in 96 well-microplates at a density of 8 × 10^3 for 24 h and then gold compounds were added in fresh RPMI medium at concentrations ranging from 0.003 to 100 µM and incubated for 72 h. On the day of the test, cells were treated with 0.5 mg/mL MTT for 1 h at 37 °C. Following precipitation, blue formazan was dissolved in DMSO, and the optical density was read in a microplate reader interfaced with Microplate Manager/PV version 4.0 software (BioRad Laboratories, Hercules, USA). From the absorbance measurements, the half-maximal inhibitory concentration (IC50) value of each compound on A2780 cells was calculated using GraphPad Prism software version 6.0 (Graphpad Holdings, LLC, USA). The same protocol was applied on non-tumor cell lines, i.e., HEK and PNT1 cells.

[4] = system: thioredoxin reductase (TrxR); conditions: for effect on TrxR enzyme activity: A2780, 12 h treatment at 72 h IC50 dose; for inhibition of TrxR enzyme activity: A2780, 24 h treatment at 72 h IC50 dose, vs controls
Protocol: The total thioredoxin reductase (TrxR) activity was measured using a commercial colorimetric assay kit (#CS0170, Sigma Aldrich, St. Louis, MO, USA) based on the reduction of 5,5′-dithiobis (2-nitrobenzoic) acid (DTNB) with NADPH to 5-thio-2 nitrobenzoic acid (TNB) at 412 nm. This kit also contains an inhibitor solution of mammalian thioredoxin reductase. Since several enzymes present in the biological sample can reduce DTNB, the specific inhibitor is used to determine the reduction of DTNB due only to TrxR activity. […] Cells were lysed with RIPA buffer (50 mM Tris-HCl pH 7.0, 1% (v/v) NP-40, 150 mM NaCl, 2 mM ethylene glycol bis(2-aminoethyl ether)tetra-acetic acid, 100 mM NaF) supplemented with a cocktail of protease inhibitors. The protein concentrations in the cell lysates were determined by Bradford protein assay kit (Bio-Rad Laboratories, Hercules, USA) according to the manufacturer’s instructions and then 30 µg samples of proteins were used for the assay. Results were normalized to the cellular protein content.

Row | SMILES | respiratory control ratio (RCR), complex I-driven [1] | decrease of complex II protein content (OXPHOS complex II) | cells bearing lower Δψm (low TMRM fluorescence) [2] | decrease of complex I protein content (OXPHOS complex I) | reduction of phospho-AKT levels (phosphorylated-AKT/total AKT ratio) (AKT) | IC50 [3] | IC50 for HEK higher than for A2780 (fold) [3] | effect on TrxR enzyme activity [4] | inhibition of TrxR enzyme activity [4]
1 | Cc1ccc2ccc3ccc(C)[n+]4c3c2[n+]1[Au-]41[O][Au-]2([O]1)[n+]1c(C)ccc3ccc4ccc(C)[n+]2c4c31.F[P-](F)(F)(F)(F)F.F[P-](F)(F)(F)(F)F [Au2phen, ((2,9-dimethyl-1,10-phenanthroline)2Au2(µ-O)2)(PF6)2] | about 1.8 | 66% | about 26% | 48% | about 12% | 4.18 ± 0.05 µM | 5 fold | clear tendency to inhibit the TrxR activity, even if the changes were not statistically significant | ~ 26%
2 | CCOC(=O)CN(C)C1=[S+][Au-]([Br])([Br])[S]1 [AuL12, dibromo(ethylsarcosinedithiocarbamate)gold(III), reference compound] | 2.3 | 40% | ~36% | 28% | ~17% | 10.7 ± 0.36 µM | 2.7 fold | clear tendency to inhibit the TrxR activity, even if the changes were not statistically significant | about 50%
3 | Cc1cccc2[n+]1[Au-]1([O][Au-]3([O]1)[n+]1c(C)cccc1-c1cccc(C)[n+]13)[n+]1c(C)cccc1-2.F[P-](F)(F)(F)(F)F.F[P-](F)(F)(F)(F)F [Auoxo6, ((6,6′-dimethyl-2,2′-bipyridine)2Au2(µ-O)2)(PF6)2] | 2.1 | 70% | 17% | 50% | ~19% | 6.16 ± 0.04 µM | 5 fold | clear tendency to inhibit the TrxR activity, even if the changes were not statistically significant | about 50%
